Assay results from PubChem BioAssay AID2060887 (Molecular Pharmacology Branch, DTP, NCI, 2025).

Test system: 782815-120-R-J1-PDC complex spheroid viability
Assay: Anticancer human tumor 782815-120-R-J1-PDC patient-derived colon adenocarcinoma cell line growth inhibition [RAS]
Details: for IC50: curve of first compound; for viability, T/C: stronger effect = lower value
From the text: RAS pathway inhibitors in Combinations in Complex Spheroids
A high-throughput screen of multi-cell type tumor spheroids was designed to identify active combinations of RAS pathway inhibitors and targeted small molecules. Complex spheroids include a stromal component modeled by human endothelial cells (HUVEC) and fibroblasts modeled by human mesenchymal stem cells (MSCs). The concentration ranges selected for each drug and investigational agent were based upon clinically achievable concentrations if the clinical Cmax of the agent was known.
Compounds. The drugs and investigational agents: abemaciclib (NSC768073), cobimetinib (NSC768068), divarasib (GDC6063, NSC841802), docetaxel (NSC628503), GDC-1971 (RLY-1971, NSC841576), gemcitabine (NSC613327), inavolisib (NSC800729), ipatasertib (NSC767898), KB-0742 (NSC834161), MRTX-1133 (NSC836407), osimertinib (NSC779217), RMC-4630 (NSC839698), RMC-6236 (NSC851965), RMC-6291 (NSC852671), Ro-3306 (NSC812927), sapanisertib (NSC764658), SN-38 (NSC673596), staurosporine (NSC755774), SY5609 (NSC837396), and tovorafenib (DAY101, NSC766906), were obtained from the National Cancer Institute (NCI) Developmental Therapeutics Program Chemical Repository. The FDA-approved anticancer drug set is available from the NCI Developmental Therapeutics Program. […] The stock solutions were prepared in dimethyl sulfoxide (DMSO, Sigma-Aldrich, St. Louis, MO, cat. D2650) at 800-fold the tested concentration and stored at -70 degrees C prior to their use. All drugs and investigational agents were tested over a range starting from a high concentration at or near the clinical Cmax and decreasing in half-log increments. If the clinical Cmax for an agent had not been determined, the highest concentration tested was 10 microM.
Cell Culture. All cells were maintained in an incubator at 37 degrees C and 5% CO2 with 95% humidity. The PDC lines were cultured according to standard operating procedures established by the NCI PDMR. All PDCs were thawed and cultured in Matrigel-coated flasks prepared with a working solution of 1X Ham's F-12 nutrient mix, without supplementation (Invitrogen, Waltham, MA, cat. 11765054), 100 U/mL penicillin-streptomycin (Invitrogen, cat. 15140122), and 2.5% Matrigel (Corning Inc., Corning, NY, cat. 354248) for the first three passages. The 362531-283-R-J2-PDC and 782815-120-R-J1-PDC lines were cultured in 6C/Colon 1B media, which includes advanced DMEM/F-12 (Thermo Fisher Scientific, cat. 12634028), 10 mM HEPES (Thermo Fisher Scientific, cat. 15630080), 1X GlutaMAX supplement (Thermo Fisher Scientific, cat. 35050061), 0.1 mg/mL primocin (InvivoGen, San Diego, CA, cat. ant-pm-2), 10% defined fetal bovine serum, heat inactivated (HyClone Laboratories Inc., Logan, UT, cat. SH30070.03HI), 50% L-WRN conditioned media (ATCC, cat. CRL-3276), 1.25 mM N-Acetyl-L-cysteine (Sigma-Aldrich, cat. A9165), 10 mM nicotinamide (Sigma-Aldrich, cat. N0636), 1X B-27 supplement (Thermo Fisher Scientific, cat. 17504044), 1X N-2 supplement (Thermo Fisher Scientific, cat. 17502048), 50 ng/mL human EGF (Thermo Fisher Scientific, cat. PHG0311), and 10 microM Y-27632 dihydrochloride (Tocris Bioscience, cat. 1254). The K12877-001-R-J1-PDC line was cultured in 6I media, which includes all 6C/Colon 1B media plus 10 ng/mL human FGF-10 (PeproTech, cat. 100-26), 1 ng/mL human FGF-2 (PeproTech, cat. 100-18B), 1 µM prostaglandin E2 (Tocris Bioscience, cat. 2296), […] hydrocortisone (Sigma-Aldrich, cat. H4001), and […] bovine insulin (Sigma-Aldrich, cat. I6634). The K86415-001-R-J1-PDC line was cultured in 6D media, which includes all 6C/Colon 1B media components minus the L-WRN conditioned media. The 485176-168-R4-J1-PDC was cultured in PANC media, which includes all 6C/Colon 1B media plus 100 ng/mL human FGF-10 (PeproTech, cat. 100-26), 500 nM SB-431542 (Selleckchem, cat. S1067), and 10 nM gastrin (Tocris Bioscience, cat. 3006). […]

[1] = second compound 0.0316 µM, first compound 0.0316 µM
[2] = second compound 0.0316 µM, first compound 0.1 µM
[3] = second compound 0.0316 µM, first compound 0.316 µM
[4] = second compound 0.0316 µM, first compound 1 µM
[5] = second compound 0.0316 µM, first compound 3.16 µM
[6] = second compound 0.0316 µM, first compound 10 µM
[7] = second compound 0.1 µM, first compound 0.0316 µM
[8] = second compound 0.1 µM, first compound 0.1 µM
[9] = second compound 0.1 µM, first compound 0.316 µM
[10] = second compound 0.1 µM, first compound 1 µM
[11] = second compound 0.1 µM, first compound 3.16 µM
[12] = second compound 0.1 µM, first compound 10 µM
[13] = second compound 0.316 µM, first compound 0.0316 µM
[14] = second compound 0.316 µM, first compound 0.1 µM
[15] = second compound 0.316 µM, first compound 0.316 µM
[16] = second compound 0.316 µM, first compound 1 µM
[17] = second compound 0.316 µM, first compound 3.16 µM
[18] = second compound 0.316 µM, first compound 10 µM
[19] = second compound 1 µM, first compound 0.0316 µM
[20] = second compound 1 µM, first compound 0.1 µM
[21] = second compound 1 µM, first compound 0.316 µM
[22] = second compound 1 µM, first compound 1 µM
[23] = second compound 1 µM, first compound 3.16 µM
[24] = second compound 1 µM, first compound 10 µM
[25] = second compound 3.16 µM, first compound 0.0316 µM
[26] = second compound 3.16 µM, first compound 0.1 µM
[27] = second compound 3.16 µM, first compound 0.316 µM
[28] = second compound 3.16 µM, first compound 1 µM
[29] = second compound 3.16 µM, first compound 3.16 µM
[30] = second compound 3.16 µM, first compound 10 µM
[31] = second compound 10 µM, first compound 0.0316 µM
[32] = second compound 10 µM, first compound 0.1 µM
[33] = second compound 10 µM, first compound 0.316 µM
[34] = second compound 10 µM, first compound 1 µM
[35] = second compound 10 µM, first compound 3.16 µM
[36] = second compound 10 µM, first compound 10 µM
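Also: spheroids exposed to compounds for 7 days before reading.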
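For viability, T/C in this document: 100% = DMSO vehicle control viability.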

`CC1(O)CCCC1n1c(=O)c(C(F)F)cc2cnc(NC3CCN(S(C)(=O)=O)CC3)nc21` (stereo unspecified) + C#Cc1c(F)ccc2cc(O)cc(-c3ncc4c(N5CC6CCC(C5)N6)nc(OCC56CCCN5CC(F)C6)nc4c3F)c12 was tested, and the IC50 (second compound 0.0316 µM) was 6050 nM, the IC50 (second compound 0.1 µM) was 4760 nM and the IC50 (second compound 0.316 µM) was 5350 nM. It also gave an IC50 (second compound 1 µM) of 5290 nM, an IC50 (second compound 3.16 µM) of 5790 nM and an IC50 (second compound 10 µM) of 4900 nM. For the same compound, the viability, T/C [1] was 73.7%, the viability, T/C [2] was 74.5% and the viability, T/C [3] was 65.7%. It also gave a viability, T/C [4] of 76%, a viability, T/C [5] of 68.8% and a viability, T/C [6] of 35.1%. It also gave a viability, T/C [7] of 83.1%, a viability, T/C [8] of 75.2% and a viability, T/C [9] of 68.8%. For the same compound, the viability, T/C [10] was 62.8%, the viability, T/C [11] was 66.4% and the viability, T/C [12] was 32.6%. It also gave a viability, T/C [13] of 78.6%, a viability, T/C [14] of 79.7% and a viability, T/C [15] of 69.2%. The viability, T/C [16] was 69.2%, the viability, T/C [17] was 65.6% and the viability, T/C [18] was 34.4%. The viability, T/C [19] was 88.5%, the viability, T/C [20] was 77.7% and the viability, T/C [21] was 75.4%. The viability, T/C [22] was 69.5%, the viability, T/C [23] was 70.7% and the viability, T/C [24] was 28.6%. It also gave a viability, T/C [25] of 77.5%, a viability, T/C [26] of 67.4% and a viability, T/C [27] of 68.7%. It also gave a viability, T/C [28] of 71%, a viability, T/C [29] of 79.1% and a viability, T/C [30] of 29.5%. It also gave a viability, T/C [31] of 70.7%, a viability, T/C [32] of 65.8% and a viability, T/C [33] of 65.5%. It also gave a viability, T/C [34] of 67.3%, a viability, T/C [35] of 74.3% and a viability, T/C [36] of 19.5%.
`CCC(CC)c1cc(NC2CCC(N)C2)n2nccc2n1` (stereo unspecified) + C#Cc1c(F)ccc2cc(O)cc(-c3ncc4c(N5CC6CCC(C5)N6)nc(OCC56CCCN5CC(F)C6)nc4c3F)c12 showed an IC50 (second compound 0.0316 µM) of 2500 nM, an IC50 (second compound 0.1 µM) of 2630 nM and an IC50 (second compound 0.316 µM) of 2820 nM. For the same compound, the IC50 (second compound 1 µM) was 2390 nM, the IC50 (second compound 3.16 µM) was 2560 nM and the IC50 (second compound 10 µM) was 2360 nM. The viability, T/C [1] was 93.3%, the viability, T/C [2] was 90.7% and the viability, T/C [3] was 99.4%. It also gave a viability, T/C [4] of 100%, a viability, T/C [5] of 38.2% and a viability, T/C [6] of 1.67%. The viability, T/C [7] was 99.2%, the viability, T/C [8] was 103% and the viability, T/C [9] was 96.9%. For the same compound, the viability, T/C [10] was 104%, the viability, T/C [11] was 40.3% and the viability, T/C [12] was 1.65%. It also gave a viability, T/C [13] of 105%, a viability, T/C [14] of 109% and a viability, T/C [15] of 103%. The viability, T/C [16] was 111%, the viability, T/C [17] was 43.7% and the viability, T/C [18] was 2.09%. For the same compound, the viability, T/C [19] was 96.3%, the viability, T/C [20] was 90.1% and the viability, T/C [21] was 101%. The viability, T/C [22] was 105%, the viability, T/C [23] was 34.4% and the viability, T/C [24] was 1.52%. For the same compound, the viability, T/C [25] was 104%, the viability, T/C [26] was 95% and the viability, T/C [27] was 91.2%. It also gave a viability, T/C [28] of 99%, a viability, T/C [29] of 39.3% and a viability, T/C [30] of 1.84%. The viability, T/C [31] was 106%, the viability, T/C [32] was 90.6% and the viability, T/C [33] was 92.2%. For the same compound, the viability, T/C [34] was 103%, the viability, T/C [35] was 33.7% and the viability, T/C [36] was 1.27%.
With `CCN1CCN(Cc2ccc(Nc3ncc(F)c(-c4cc(F)c5nc(C)n(C(C)C)c5c4)n3)nc2)CC1` + C#Cc1c(F)ccc2cc(O)cc(-c3ncc4c(N5CC6CCC(C5)N6)nc(OCC56CCCN5CC(F)C6)nc4c3F)c12 the IC50 (second compound 0.0316 µM) was over 1000 nM, the IC50 (second compound 0.1 µM) was over 1000 nM and the IC50 (second compound 0.316 µM) was over 1000 nM. For the same compound, the IC50 (second compound 1 µM) was over 1000 nM, the IC50 (second compound 3.16 µM) was over 1000 nM and the IC50 (second compound 10 µM) was over 1000 nM. For the same compound, the viability, T/C (second compound 0.0316 µM, first compound 0.00316 µM) was 103%, the viability, T/C (second compound 0.0316 µM, first compound 0.01 µM) was 105% and the viability, T/C [1] was 112%. It also gave a viability, T/C [2] of 102%, a viability, T/C [3] of 109% and a viability, T/C [4] of 123%. It also gave a viability, T/C (second compound 0.1 µM, first compound 0.00316 µM) of 107%, a viability, T/C (second compound 0.1 µM, first compound 0.01 µM) of 104% and a viability, T/C [7] of 95.8%. It also gave a viability, T/C [8] of 104%, a viability, T/C [9] of 113% and a viability, T/C [10] of 130%. For the same compound, the viability, T/C (second compound 0.316 µM, first compound 0.00316 µM) was 108%, the viability, T/C (second compound 0.316 µM, first compound 0.01 µM) was 101% and the viability, T/C [13] was 100%. The viability, T/C [14] was 110%, the viability, T/C [15] was 106% and the viability, T/C [16] was 119%. It also gave a viability, T/C (second compound 1 µM, first compound 0.00316 µM) of 110%, a viability, T/C (second compound 1 µM, first compound 0.01 µM) of 109% and a viability, T/C [19] of 108%. It also gave a viability, T/C [20] of 103%, a viability, T/C [21] of 111% and a viability, T/C [22] of 113%. The viability, T/C (second compound 3.16 µM, first compound 0.00316 µM) was 103%, the viability, T/C (second compound 3.16 µM, first compound 0.01 µM) was 99.2% and the viability, T/C [25] was 101%. For the same compound, the viability, T/C [26] was 104%, the viability, T/C [27] was 128% and the viability, T/C [28] was 119%. The viability, T/C (second compound 10 µM, first compound 0.00316 µM) was 109%, the viability, T/C (second compound 10 µM, first compound 0.01 µM) was 107% and the viability, T/C [31] was 95.3%. It also gave a viability, T/C [32] of 107%, a viability, T/C [33] of 120% and a viability, T/C [34] of 125%.
